target: Transforming acidic coiled-coil-containing protein 3 (Homo sapiens) (UniProt Q9Y6A5); assay: inhibition of ARNT PAS-B/TACC3 complex formation – biochemical, AlphaScreen, cherry-picked samples, confirmation (AID 651703); conditions: AlphaScreen His-ARNT PAS-B / GST-TACC3 binding, luminescence;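 also: TACC3 partner is the GST-tagged E629A mutant dimer; hits lower the signal meaning they disrupt ARNT binding to TACC3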

SMILES	AC50
O=C(CN1CCCCCCC1)N/N=C/c1ccc(F)c(F)c1	65.8 µM
C(=N\Nc1ncnc2nc[nH]c12)/c1cccs1	57.8 µM
C/C(=N\NC(=O)C1CCCN(S(=O)(=O)c2ccccc2)C1)c1ccccn1 (stereo not given)	11.1 µM
CCCC(=O)NC(c1cccs1)c1cc([N+](=O)[O-])c2cccnc2c1O (stereo not given)	3.51 µM
N#CC1=C(N)Oc2c(ccc3cccnc23)C1c1ccncc1 (stereo not given)	26.9 µM
Cn1nc(-c2ccccn2)nc2c(=O)n(C)c(=O)nc1-2	< 0.5 µM
Cc1nnc(NC(=O)c2ccc(S(=O)(=O)N3CC(C)OC(C)C3)cc2)o1 (stereo not given)	44.6 µM
CN(C)CCCNC(=O)c1ccc(-c2cc(O)c3ncccc3c2)cc1	2.78 µM
O=S(=O)(c1ccccc1)N1C[C@@H]2[C@H](c3ccccc31)[C@H](CO)N2Cc1ccccn1	61.5 µM
Cc1oc(C(=O)O)cc1COc1cccc2cccnc12	36.6 µM
CCNC(=O)C(=O)N/N=C/c1cc([N+](=O)[O-])ccc1O	2.62 µM
NC(CO)C(=O)NNCc1ccc(O)c(O)c1O (stereo not given)	13.3 µM
O=C(COC(=O)c1ccco1)Nc1nnc(-c2ccccc2)o1	24.8 µM
COc1cc(CNCc2ccccn2)ccc1OCc1ccc(Cl)cc1	60.7 µM
Oc1c(CN2CCOCC2)cc(COCc2ccccc2)c2cccnc12	0.614 µM
Cc1c(Cl)cccc1-c1ccc(CNCc2ccccn2)o1	35.2 µM
CC(=O)/C(=N\Nc1ccc(Cl)cc1Cl)Sc1cccc2cccnc12	2.95 µM
COc1ccc([Si](C)(C)[C@@H]2[C@@H](CCO)O[C@]3(C(=O)N4c5c(cc(OC)cc53)C(C)=CC4(C)C)[C@H]2C)cc1	11.3 µM
C[C@H]1c2cccc(O)c2C(O)=C2C(=O)[C@]3(O)C(O)=C(C(N)=O)C(=O)[C@@H](N(C)C)C3[C@@H](O)C21 (stereo not given in full)	33.5 µM
COc1cccc(CNc2nc(-c3ccccn3)nnc2-c2ccccc2)c1	0.794 µM
CCOc1cc(CNCc2ccccn2)cc(Cl)c1OCC	45 µM
COc1cc(-c2nnc(NC(=O)c3ccco3)o2)cc(OC)c1OC	66.9 µM
CCOc1cccc(/C=N/NC(=O)c2cc(-c3cccn3C)n[nH]2)c1O	17.1 µM

SMILES	AC50
O=C(N[C@@H]1CC[C@@H](CCn2cc(-c3ccccn3)nn2)O[C@@H]1CO)c1ccncc1	10.3 µM
O=C(N/N=C/c1sc2ccccc2c1O)c1cccc2ccccc12	23 µM
O=C(N/N=C/c1c(O)ccc2ccccc12)c1ccc(CO)nc1	10.8 µM
Fc1ccc(-c2ccc(CNCc3ccccn3)o2)cc1	31.2 µM
CCOC(=O)N1CCN(S(=O)(=O)c2ccc(C(=O)Nc3nnc(C4CC4)o3)cc2)CC1	13.4 µM
O=C(Nc1nc(-c2ccccn2)cs1)c1ccc(Cl)s1	3.61 µM
c1ccc(-c2cn(C[C@H]3CC[C@@H]([C@@H]4CC[C@H](Cn5cc(-c6ccccn6)nn5)O4)O3)nn2)nc1	0.659 µM
c1ccc(-c2nn[nH]n2)nc1	5.22 µM
COc1cc(CNCc2ccccn2)ccc1OCc1cccc(Cl)c1	62.6 µM
Cc1cccc(NC(=O)CSc2ccc(-c3ccccn3)nn2)c1C	2.86 µM
CC1CN(Cc2ccc(O)c3ncccc23)CC(C)O1 (stereo not given)	2.59 µM
COc1ccc(CCNC(=O)CSc2nnc3ccc(-c4ccccn4)nn23)cc1	33.5 µM
CCCOc1ccc(/C=N/Nc2cc(N3CCOCC3)ncn2)c(O)c1	8 µM
c1ccc(CNCCN2CCNCC2)nc1	6.79 µM
Oc1c(C(c2ccccc2Cl)N2CCCC2)ccc2cccnc12 (stereo not given)	1.85 µM
Cc1ccccc1C(=O)Nc1cccc(C(=O)N/N=C/c2cc(Cl)cc([N+](=O)[O-])c2O)c1	40 µM
CCC(C)c1c(N)n(S(=O)(=O)c2ccc(C)cc2)oc1=O (stereo not given)	44.1 µM
CC(Oc1ccc(F)cc1)C(=O)Nc1nc(-c2ccccn2)cs1 (stereo not given)	8.7 µM
Cc1nc(Nc2ccc(C(=O)O)cc2)nc(Nc2ccc(C(=O)O)cc2)c1[N+](=O)[O-]	22.1 µM
O=C(NC[C@@H]1[C@H](c2ccccc2)[C@H](CO)N1Cc1ccccn1)C1CCC1	28.2 µM
O=C(CSc1ccc(-c2ccccn2)nn1)NC1CCCC1	2.64 µM
O=C(CC(NCc1ccccn1)C(=O)O)Nc1ccccc1Cl (stereo not given)	0.638 µM

From PubChem BioAssay AID651703 (Broad Institute, 2012)
